Measured values as given in paper PMC10145360, “Antiplatelet Aggregation Properties of Cirsilineol: A Novel Inhibitor of Blood Coagulation Factor Xa” (Pharmaceuticals, 2023).
Marks after values point to notes of the source that are not given here.

What was measured:
[1] = system: platelet-poor plasma (PPP); assay: In vitro aPTT clotting time in platelet-poor plasma; design: species or system human; conditions: PPP incubated 15 min
Procedure: (§1) Figure 2 Effects of CSL on clotting time. (A) Platelet-poor plasma (PPP) was incubated with the indicated concentrations of CSL or rivaroxaban (Riva) for 15 min. (B) One hour after administering DMSO, CSL, or Riva, blood was collected from the mice, and PPP was obtained. Then, in vitro aPTT (A) or ex vivo aPTT was measured, as described in the Methods sections. Data are shown as mean values ± SD of five independent experiments. * p < 0.05 vs. D. D = 0.2% DMSO, used as the vehicle control.
(§2) Ten fasting healthy volunteers (aged 24–28; six women and four men) who were free of allergies, cardiovascular problems, carbohydrate, or lipid metabolic abnormalities and had not taken any morning medication had their blood samples taken. None of our subjects used addictive drugs or antioxidant food supplements, and their diets were well balanced. The plasma from the blood samples was immediately spun down (1300× g for 15 min) to separate it from sodium citrate (10.9 mM) and pooled for the following investigations. Next, human blood samples were spun down at room temperature to rapidly separate the PRP. The PRP concentration was adjusted to 1 × 10^9 platelets/mL using a hemocytometer. After being rinsed once in HEPES buffer containing 1 mM CaCl2, the PRP pellet was maintained at room temperature for an additional 30 min. Then, 10 mL of the platelet samples were utilized to measure each clotting time point. The IRB of Kyungpook National University Hospital (Daegu, Republic of Korea) approved this study protocol (KNUH 2012-01-010).
Plasma was taken by centrifuging blood (2000× g for 10 min) at room temperature following dimethyl sulfoxide (DMSO) or CSL administration for 1 h to assess PT and aPTT using a thrombotimer (Behnk Elektronik, Norderstedt, Germany). Micronized silica was utilized as an activator for the aPTT test. Briefly, 100 μL of platelet-poor plasma (PPP) and 100 μL of aPTT assay reagent were combined for 1 min at 37 °C, 100 µL of CaCl2 (20 mM) was added, and the clotting times were noted. […] Next, the clotting time was measured.

[2] = system: FeCl3-induced carotid artery thrombosis; assay: FeCl3-induced carotid artery thrombosis model; type: in vivo, mouse; conditions: mice
Procedure: A mouse model of FeCl3-induced thrombosis was created and used. Male C57BL/6 mice were starved for the entire night before receiving intravenous injections of the relevant drug in 0.2 mL of DMSO and were allowed to sleep. The carotid artery of the animal was exposed. The adventitial surface was covered with a cotton thread (200 μm in diameter) soaked in FeCl3 solution (0.25 M) for 5 min. The wound was flushed with saline solution once the thread had been removed. […] We measured the size and rate of thrombus formation, and we graded our results as follows: no thrombus or small thrombus (75–50 μm), medium thrombus (150–100 μm), massive thrombus (300–200 μm), and more than three thrombi. It was also noted how long it took for an extensive thrombus to obstruct the carotid artery following endothelial damage caused by FeCl3.

platelets = conditions: cited from earlier work
[3] = system: human platelet-rich plasma (PRP); assay: In vitro agonist-induced platelet aggregation (aggregometer); type: cell-based
Procedure: Figure 3 Effects of CSL on agonist-induced platelet aggregation. Platelet-rich plasma (PRP) was preincubated for 5 min with different concentrations of CSL, Riva, or the vehicle. […] Data are shown as mean values ± SD of five independent experiments. * p < 0.05 vs. D. D = 0.2% DMSO, used as the vehicle control.
as §2
CSL dissolved in DMSO was incubated with human PRP for a specified time (1, 3, 5, or 10 min). […]

[4] = system: collagen and epinephrine-induced pulmonary thrombosis; assay: Acute pulmonary thrombosis induced by collagen and epinephrine; type: in vivo, mouse; conditions: for Mortality %: then collagen + epinephrine, mice; for Scored thrombus formation (Thrombi), lung: graded as thrombi per 25 mm^2 lung field
Procedure: Mice were separated into several groups after being fasted overnight (10 animals each). CSL was dissolved in DMSO and given intravenously to each mouse. After 1 h, the animals received an injection of collagen and epinephrine mixture (500 μg/kg each) to induce acute thrombosis. Each mouse was closely observed for 15 min to see if it had recovered from the acute thrombosis challenge, had been paralyzed, or had passed away. H&E-stained lung tissue slices from five mice were randomly selected for the histologic investigation to determine the extent of pulmonary thrombus development. The number of arteries greater than 20 μm in diameter with any detectable thrombus was counted in each of the five view fields randomly selected from the left lobe in each section (one section per mouse). Twenty-five fields for each group were compared as a result. A total of 60–80 vessels in each segment were imaged using the system (Leica, Germany). The results were graded as the number of thrombi per 25 mm^2 lung field as previously described.

[5] = system: platelet-poor plasma (PPP); assay: Prothrombin time (PT) after administration to mice; type: in vivo, mouse; conditions: administered to mice; data not shown
Procedure: (§3) First, the potential cytotoxicity of […] on HUVECs was assessed using the 3-(4,5-dimethylthiazol-2-yl)-2,5-diphenyltetrazolium bromide (MTT) assay. […] The activated partial thromboplastin time (aPTT) and prothrombin time (PT), two coagulation parameters altered by CSL in vitro, were assessed first. We used the direct FXa inhibitor rivaroxaban as a positive control for our experiments. […] In the aPTT experiments, rivaroxaban at 8.38 μM and CSL at 7.23 μM, respectively, doubled the clotting time. Each mouse group (n = 5) received intravenous injections of CSL for 4 consecutive days to validate the in vitro results in an ex vivo experiment. […] In the ex vivo aPTT assays, treatment with CSL at 0.25 mg/kg and rivaroxaban at 0.29 mg/kg, respectively, doubled the clotting time. The average blood volume was determined to be 2 mL based on an estimated circulating blood volume for mice of 72 mL/kg and an average weight of 27 g for each animal used in this investigation. As a result, the estimated concentration of CSL in the peripheral blood after each injection ([…]) was 2.5, 5, 10, or 20 μM, respectively.
(§4) Plasma was taken by centrifuging blood (2000× g for 10 min) at room temperature following dimethyl sulfoxide (DMSO) or CSL administration for 1 h to assess PT and aPTT using a thrombotimer (Behnk Elektronik, Norderstedt, Germany). […] Next, the clotting time was measured.

[6] = system: platelet-poor plasma (PPP); assay: Ex vivo aPTT clotting time after intravenous injection; type: in vivo, mouse; conditions: mice, intravenous
Procedure: as §3, §1
Male C57BL/6 mice aged 7 weeks (mean weight: 27 g) were purchased from Orient Bio Co., in Sungnam, Republic of Korea, and were subjected to a 12-day acclimatization phase. […]
as §4

O=C(NC[C@H]1CN(c2ccc(N3CCOCC3=O)cc2)C(=O)O1)c1ccc(Cl)s1 [Rivaroxaban, rivaroxaban, reference compound]
concentration that doubled the clotting time (in vitro aPTT) [1]: 8.38 µM | Scored thrombus formation ([2]; 0.13 mg/kg intravenous): 3.5 ± 0.1 | Time to Large Thrombus Formation ([2]; 0.13 mg/kg intravenous): 15.3 ± 1.1 min | Scored thrombus formation ([2]; 0.26 mg/kg intravenous): 3.1 ± 0.3 | Time to Large Thrombus Formation ([2]; 0.26 mg/kg intravenous): 21.8 ± 1.9 min | Scored thrombus formation ([2]; 0.51 mg/kg intravenous): 2.3 ± 0.1 | Time to Large Thrombus Formation ([2]; 0.51 mg/kg intravenous): 44.3 ± 3.1 min | platelet aggregation (platelets; blood taken from patients on rivaroxaban treatment): decreased platelet aggregation | platelet aggregation brought on by collagen, ADP, thromboxane A2, or thrombin (platelets; previous studies): not to affect | platelet aggregation induced by ADP ([3]; ADP 10 μM): did not affect | platelet aggregation induced by U46619 ([3]; U46619 6 μM): did not affect | platelet aggregation induced by collagen ([3]; collagen 1 μg/mL): did not affect | platelet aggregation induced by thrombin ([3]; thrombin 3 U/mL): did not affect | Mortality % ([4]; 0.13 mg/kg intravenous): 85 ^# % | Scored thrombus formation (Thrombi), lung ([4]; 0.13 mg/kg intravenous): 3.1 ± 0.1 | Mortality % ([4]; 0.26 mg/kg intravenous): 75 ^# % | Scored thrombus formation (Thrombi), lung ([4]; 0.26 mg/kg intravenous): 2.6 ± 0.1 | Mortality % ([4]; 0.51 mg/kg intravenous): 55 ^# % | Scored thrombus formation (Thrombi), lung ([4]; 0.51 mg/kg intravenous): 1.9 ± 0.2 | PT [5]: did not change | dose that doubled the clotting time (ex vivo aPTT) [6]: 0.29 mg/kg
